Experimental data reported in US8552017B2, “2-amino-3-sulphonyl-tetrahydro-pyrazolo[1,5-A]pyrido-pyrimidine antagonists of serotonin 5-HT6 receptors, methods for the production and use thereof” (priority 2008, dated 2013).
Where a name gives a salt, the structure may show the parent alone.

Legend:
[1] = target: T1, 5-HT6 receptor (Homo sapiens (Human), UniProt P50406); assay: Antagonistic activity test towards 5-HT6 receptors (serotonin-induced intracellular cAMP, LANCE cAMP kit, HEK 293 cells); format: cell-based; details: read-out: IC50 in the setting of functional assay
T1 sequence (P50406 whole entry): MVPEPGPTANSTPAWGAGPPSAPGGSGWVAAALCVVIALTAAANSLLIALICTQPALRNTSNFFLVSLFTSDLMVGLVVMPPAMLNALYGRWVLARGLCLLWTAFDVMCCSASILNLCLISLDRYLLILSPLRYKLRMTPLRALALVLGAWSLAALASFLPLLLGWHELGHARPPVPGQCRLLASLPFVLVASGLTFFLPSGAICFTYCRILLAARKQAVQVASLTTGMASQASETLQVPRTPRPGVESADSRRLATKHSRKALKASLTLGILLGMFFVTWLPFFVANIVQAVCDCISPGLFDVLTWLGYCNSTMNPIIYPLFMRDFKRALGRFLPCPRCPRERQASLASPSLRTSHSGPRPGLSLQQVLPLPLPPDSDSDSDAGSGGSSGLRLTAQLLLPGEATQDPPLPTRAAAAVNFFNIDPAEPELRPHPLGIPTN
Experimental: Antagonistic activity test of compounds of the general formulas 1 and 2 towards 5-HT6 receptors. Compounds of general formulas 1 and 2 were tested for their ability to prevent 5-HT6 receptors activation by serotonin. HEK 293 cells (kidney cells of human's embryo) with artificially expressed 5-HT6 receptor, activation of which by serotonin leads to increasing the concentration of intracellular cAMP were used. Intracellular cAMP content was determined using reagent kit LANCE cAMP (PerkinElmer) according to the method described by the manufacturer of the kit [http://las.perkinelmer.com/content/Manuals]. Effectiveness of compounds was estimated by their ability to reduce the content of intracellular cAMP induced by serotonin.

[2] = target: T1, 5-HT6 receptor; assay: Competitive radioligand binding ([3H] Lysergic acid diethylamide) to serotonin 5-HT6 receptors, HeLa cell membranes
Experimental: Screening of the disclosed compounds for their potential ability to interact with serotonin 5-HT6 receptors was carried out by the method of radioligand binding. For this purpose membrane species were prepared from HeLa cells expressing recombinant human 5-HT6 receptors, by means of cells homogenization in glass homogenizer with subsequent separation of plasmatic membranes from cell nucli, mitochondria's and cell wreckages by differential centrifugation. Determination of tested compounds binding to 5-HT6 receptors was carried out according to the method described in [Monsma F J Jr, Shen Y, Ward R P, Hamblin M W and Sibley D R, Cloning and expression of a novel serotonin receptor with high affinity for tricyclic psychotropic drugs. Mol Pharmacol. 43:320-327, 1993]. […] Methiothepin was used as a positive control. Binding of the tested compounds with the receptor was determined by their ability to displace the radioligand and was expressed in percent of displacement. The percent of displacement was calculated according to the following equation:
[formula] wherein: TA—was overall radioactivity in the presence of radioligand only, CA—was radioactivity in the presence of radioligand and tested compound and NA—was radioactivity in the presence of radioligand and Serotonin (5 μM).

| IC50 [1] [nM] | IC50 ([2]; 1.5 nM [3H] Lysergic acid diethylamide) [nM] | Ki ([2]; Ki=IC50/(1+[L]/KD)) [nM] | SMILES |
| --- | --- | --- | --- |
| 29.7 | – | – | CNc1nn2c3c(cnc2c1S(=O)(=O)c1ccccc1)CN(C)CC3 [1.1(3), 2-methylamino-7-methyl-3-phenylsulfonyl-6,7,8,9-tetrahydropyrazolo[1,5-a]pyrido[4,3-e]pyrimidine] |
| – | 1.48 | 0.685 | CNc1nn2c3c(c(C)nc2c1S(=O)(=O)c1ccccc1)CN(C)CC3 [1.1(4)•HCl] |
